Counter-ions that a name gives are not always drawn.
Target: T1, DP receptor (Homo sapiens, UniProt Q13258)
T1 construct: the human cell line LS174T, which expresses the endogenous DP receptor; endogenous in cells; host or cells: LS174T human cell line
T1 sequence (Q13258 1-359): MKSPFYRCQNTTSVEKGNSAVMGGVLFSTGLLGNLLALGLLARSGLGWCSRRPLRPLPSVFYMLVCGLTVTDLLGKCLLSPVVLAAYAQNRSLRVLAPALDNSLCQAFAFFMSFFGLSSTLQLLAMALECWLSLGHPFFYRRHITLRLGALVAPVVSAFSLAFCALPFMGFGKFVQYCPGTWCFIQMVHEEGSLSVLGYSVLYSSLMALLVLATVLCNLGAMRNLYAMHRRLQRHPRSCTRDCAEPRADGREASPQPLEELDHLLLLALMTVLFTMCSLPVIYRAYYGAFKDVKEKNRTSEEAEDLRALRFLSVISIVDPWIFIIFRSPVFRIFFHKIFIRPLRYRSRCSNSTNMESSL
Test: SPA cAMP assay in human LS174 T cells (human DP functional assay)
Type: cell-based
Conditions: inhibition of PGD2 (15 nM final) stimulated cAMP, LS174T cells expressing endogenous DP receptor
Procedure, shortened: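 LS174T cells with endogenous DP receptor, 45,000/well seeded overnight, exposed to compounds at 11 points for 15 min at 37 °C in buffer containing IBMX, with PGD2 stimulation.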

SMILES | IC50
COc1ccc(CCNc2cc(-c3cccc4cnccc34)nc(OC)n2)cc1 [Example 8(g), (6-Isoquinolin-5-yl-2-methoxy-pyrimidin-4-yl)-[2-(4-methoxy-phenyl)-ethyl]-amine] | 64 nM
COc1ccc(CCNc2cc(-c3cnco3)nc(OC)n2)cc1 [Example 45, (2-Methoxy-6-oxazol-5-yl-pyrimidin-4-yl)-[2-(4-methoxy-phenyl)-ethyl]-amine] | 7.8 nM
COc1nc(NCCc2ccc(Cl)cc2Cl)cc(-c2ccc(Cl)c(C(C)(C)O)c2)n1 [Example 98, 2-(2-Chloro-5-{6-[2-(2,4-dichloro-phenyl)-ethylamino]-2-methoxy-pyrimidin-4-yl}-phenyl)-propan-2-ol] | 110 nM
COc1ccc(CCNc2cc(-c3ccc[n+]([O-])c3)nc(OC)n2)cc1 [Example 21(a), [2-Methoxy-6-(1-oxy-pyridin-3-yl)-pyrimidin-4-yl]-[2-(4-methoxy-phenyl)-ethyl]-amine] | 149 nM
CCOc1nc(NCCc2ccc(OC)c(OC)c2)cc(-c2ccc(OC)c(OC)c2)n1 [Example 17(b), [6-(3,4-Dimethoxy-phenyl)-2-ethoxy-pyrimidin-4-yl]-[2-(3,4-dimethoxy-phenyl)-ethyl]-amine] | 655 nM
COc1ccc(CCNc2cc(-c3ccc(C)s3)nc(OC)n2)cc1 [Example 8(e), [2-Methoxy-6-(5-methyl-thiophen-2-yl)-pyrimidin-4-yl]-[2-(4-methoxy-phenyl)-ethyl]-amine] | 8.2 nM
CCOC(=O)c1cccc(-c2cc(NCCc3ccc(Cl)cc3Cl)nc(OC)n2)c1 [Example 77, 3-{6-[2-(2,4-Dichloro-phenyl)-ethylamino]-2-methoxy-pyrimidin-4-yl}-benzoic acid ethyl ester] | 149 nM
COc1nc(NCCc2ccc(C(F)(F)F)cc2F)cc(-c2cccc(CCNC(C)=O)c2)n1 [Example 65, N-[2-(3-{6-[2-(2-Fluoro-4-trifluoromethyl-phenyl)-ethylamino]-2-methoxy-pyrimidin-4-yl}-phenyl)-ethyl]-acetamide hydrochloride] | 37 nM
COc1ccc(CCNc2cc(-c3ccc(N4CCOCC4)cc3)nc(OC)n2)cc1 [Example 10(k), [2-Methoxy-6-(4-morpholin-4-yl-phenyl)-pyrimidin-4-yl]-[2-(4-methoxy-phenyl)-ethyl]-amine] | 13 nM

Compounds with a lower IC50, results first:

IC50 | SMILES
7.3 nM | COc1ccc(CCNc2cc(-c3cccc(S(C)(=O)=O)c3)nc(OC)n2)cc1 [Example 10(i)]
6.6 nM | CCNS(=O)(=O)c1cccc(-c2cc(NCCc3ccc(OC)cc3)nc(OC)n2)c1 [Example 4(b), N-Ethyl-3-{2-methoxy-6-[2-(4-methoxy-phenyl)-ethylamino]-pyrimidin-4-yl}-benzenesulfonamide]
2.4 nM | COc1nc(NCCc2c(F)cccc2Cl)cc(-c2cccc(CO)c2)n1 [Example 9(d), (3-{6-[2-(2-chloro-6-fluoro-phenyl)-ethylamino]-2-methoxy-pyrimidin-4-yl}-phenyl)-methanol]
0.8 nM | COc1nc(NCCc2ccc(Cl)cc2Cl)cc(-c2cccc(C(=O)NCC(=O)O)c2)n1 [Example 59, (3-{6-[2-(2,4-Dichloro-phenyl)-ethylamino]-2-methoxy-pyrimidin-4-yl}-benzoylamino)-acetic acid]
0.7 nM | COc1ccc(CCNc2cc(-c3ccc4[nH]ccc4c3)nc(OC)n2)cc1 [Example 10(c), [6-(1H-Indol-5-yl)-2-methoxy-pyrimidin-4-yl]-[2-(4-methoxy-phenyl)-ethyl]-amine]
0.5 nM | COc1nc(NCCc2ccc(Cl)cc2Cl)cc(-c2cc(C(C)(C)C(=O)O)ccc2F)n1 [Example 99, 2-(3-{6-[2-(2,4-Dichloro-phenyl)-ethylamino]-2-methoxy-pyrimidin-4-yl}-4-fluoro-phenyl)-2-methyl-propionic acid hydrochloride]
0.4 nM | COc1nc(NCCc2ccc(Cl)cc2Cl)cc(-c2cccc(OCC#N)c2)n1 [Example 22(e), (3-{6-[2-(2,4-Dichloro-phenyl)-ethylamino]-2-methoxy-pyrimidin-4-yl}-phenoxy)-acetonitrile]

— patent US7517889B2, “2,6-substituted-4-monosubstitutedamino-pyrimidine as prostaglandin D2 receptor antagonists” (Aventis Pharmaceuticals, Inc., priority 2004, dated 2009)
